Blank lines part the entries; values can stand above or below the molecule they belong to.
Key:
human mGluR5a receptors = human mGluR5a receptors (Homo sapiens (Human), UniProt P41594); experiment: inhibition of glutamate-induced elevation of intracellular calcium in L(tk-) cells expressing human mGluR5a; type: cell-based; conditions: glutamate-induced intracellular calcium elevation, L(tk-) cells expressing human mGluR5a; read-out: mGluR5 IC50
Procedure, shortened: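 Compounds tested for inhibition of the glutamate-induced rise in intracellular calcium concentration in L(tk-) cells stably expressing human mGluR5a.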

human mGluR1 = human mGluR1 (Homo sapiens (Human), UniProt Q13255); experiment: mGluR1 antagonism, L-glutamate induced intracellular calcium increase (FLIPR) in CHO cells stably expressing human mGluR1; type: cell-based; conditions: L-glutamate induced intracellular calcium, CHO cells expressing human mGluR1, FLIPR
Chain of human mGluR1 (Q13255 19-1194): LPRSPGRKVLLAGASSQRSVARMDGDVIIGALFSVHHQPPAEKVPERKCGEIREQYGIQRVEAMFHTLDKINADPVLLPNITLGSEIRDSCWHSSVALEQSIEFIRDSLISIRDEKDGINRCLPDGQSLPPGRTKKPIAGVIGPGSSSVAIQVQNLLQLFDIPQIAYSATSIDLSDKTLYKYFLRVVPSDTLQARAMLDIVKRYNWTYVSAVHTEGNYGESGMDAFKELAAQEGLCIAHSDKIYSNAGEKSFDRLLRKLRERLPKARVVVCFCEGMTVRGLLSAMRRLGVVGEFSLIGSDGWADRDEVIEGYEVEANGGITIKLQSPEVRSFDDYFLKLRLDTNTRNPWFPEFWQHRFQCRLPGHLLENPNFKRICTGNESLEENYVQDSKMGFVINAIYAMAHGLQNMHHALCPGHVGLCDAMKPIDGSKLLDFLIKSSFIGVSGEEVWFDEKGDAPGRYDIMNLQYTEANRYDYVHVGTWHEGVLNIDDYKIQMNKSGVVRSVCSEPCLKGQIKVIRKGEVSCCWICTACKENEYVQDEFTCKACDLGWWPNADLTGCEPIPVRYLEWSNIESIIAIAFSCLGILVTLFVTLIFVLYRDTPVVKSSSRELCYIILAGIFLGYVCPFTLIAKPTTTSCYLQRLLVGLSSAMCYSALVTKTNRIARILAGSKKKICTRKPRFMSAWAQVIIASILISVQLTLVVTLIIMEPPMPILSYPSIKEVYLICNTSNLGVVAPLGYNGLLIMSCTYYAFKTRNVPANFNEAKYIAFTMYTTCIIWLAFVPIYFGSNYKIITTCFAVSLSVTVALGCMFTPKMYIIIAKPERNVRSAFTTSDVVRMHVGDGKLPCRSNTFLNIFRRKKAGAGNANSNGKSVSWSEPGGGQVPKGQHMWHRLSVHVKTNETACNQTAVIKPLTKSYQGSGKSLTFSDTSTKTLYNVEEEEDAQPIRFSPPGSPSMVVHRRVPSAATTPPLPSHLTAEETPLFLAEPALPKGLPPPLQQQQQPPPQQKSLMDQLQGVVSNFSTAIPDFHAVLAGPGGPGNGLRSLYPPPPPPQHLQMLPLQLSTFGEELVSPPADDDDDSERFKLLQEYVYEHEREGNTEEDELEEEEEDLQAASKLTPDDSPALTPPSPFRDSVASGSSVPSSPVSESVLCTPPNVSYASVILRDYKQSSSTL

Chain of human mGluR5a receptors (P41594 other isoform, or with tags, fused parts or gaps): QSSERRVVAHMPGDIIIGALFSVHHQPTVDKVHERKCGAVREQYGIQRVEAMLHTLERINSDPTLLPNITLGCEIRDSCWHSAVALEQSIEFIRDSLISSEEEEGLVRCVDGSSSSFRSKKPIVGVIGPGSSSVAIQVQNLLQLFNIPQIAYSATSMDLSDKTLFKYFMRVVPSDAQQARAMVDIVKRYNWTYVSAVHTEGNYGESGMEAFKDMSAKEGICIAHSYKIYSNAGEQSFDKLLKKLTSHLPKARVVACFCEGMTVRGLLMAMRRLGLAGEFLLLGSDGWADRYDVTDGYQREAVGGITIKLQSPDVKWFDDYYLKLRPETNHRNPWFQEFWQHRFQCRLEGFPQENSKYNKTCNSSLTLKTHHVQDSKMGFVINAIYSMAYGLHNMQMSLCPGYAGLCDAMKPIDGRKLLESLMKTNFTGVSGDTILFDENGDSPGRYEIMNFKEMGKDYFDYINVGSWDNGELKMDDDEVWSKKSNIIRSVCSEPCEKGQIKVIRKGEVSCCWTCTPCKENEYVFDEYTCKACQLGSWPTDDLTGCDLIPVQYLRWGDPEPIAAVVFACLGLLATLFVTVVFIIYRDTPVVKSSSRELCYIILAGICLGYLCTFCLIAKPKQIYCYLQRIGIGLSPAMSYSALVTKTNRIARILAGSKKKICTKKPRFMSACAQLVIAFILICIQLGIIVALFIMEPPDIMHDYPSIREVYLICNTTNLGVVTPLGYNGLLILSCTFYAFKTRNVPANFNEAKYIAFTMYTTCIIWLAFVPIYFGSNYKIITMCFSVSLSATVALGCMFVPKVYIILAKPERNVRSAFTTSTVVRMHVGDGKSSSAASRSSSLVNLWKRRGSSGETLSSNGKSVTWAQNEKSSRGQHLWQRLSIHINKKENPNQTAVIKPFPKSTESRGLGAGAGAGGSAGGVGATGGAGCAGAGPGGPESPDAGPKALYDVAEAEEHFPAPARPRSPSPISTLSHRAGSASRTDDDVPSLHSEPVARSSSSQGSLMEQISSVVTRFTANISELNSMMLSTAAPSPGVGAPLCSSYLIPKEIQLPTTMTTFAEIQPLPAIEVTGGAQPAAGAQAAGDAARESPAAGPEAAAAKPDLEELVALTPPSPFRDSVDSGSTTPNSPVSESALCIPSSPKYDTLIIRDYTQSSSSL

SMILES: C=C(C)c1cccc2c1CCN1C(=O)CN=C(n3cnc([C@@H](C)OC)c3)C=C21 [Example 118, (R)-2-(4-(1-methoxyethyl)-1H-imidazol-1-yl)-9-(prop-1-en-2-yl)-7,8-dihydro-[1,4]diazepino[7,1-a]isoquinolin-5(4H)-one]
IC50 (human mGluR5a receptors): 18 nM | IC50 (human mGluR1): > 10000 nM

SMILES: C=C(C)c1cccc2c1CCN1C(=O)CN=C(n3cnc([C@H](C)OC)c3)C=C21 [Example 119, (S)-2-(4-(1-methoxyethyl)-1H-imidazol-1-yl)-9-(prop-1-en-2-yl)-7,8-dihydro-[1,4]diazepino[7,1-a]isoquinolin-5(4H)-one]
IC50 (human mGluR5a receptors): 24 nM | IC50 (human mGluR1): 2600 nM

SMILES: C=C(C)c1cccc2c1CCN1C(=O)CN=C(n3cnc(COC)c3)C=C21 [Example 121, 2-(4-(methoxymethyl)-1H-imidazol-1-yl)-9-(prop-1-en-2-yl)-7,8-dihydro-[1,4]diazepino[7,1-a]isoquinolin-5(4H)-one]
IC50 (human mGluR5a receptors): 14 nM | IC50 (human mGluR1): 490 nM

SMILES: CO[C@@H](C)c1cn(C2=NCC(=O)N3CCc4c(cccc4C4CC4)C3=C2)cn1 [Example 122, (S)-9-cyclopropyl-2-(4-(1-methoxyethyl)-1H-imidazol-1-yl)-7,8-dihydro-[1,4]diazepino[7,1-a]isoquinolin-5(4H)-one]
IC50 (human mGluR5a receptors): 5 nM | IC50 (human mGluR1): 1100 nM

SMILES: O=C1CN=C(n2cnc(-c3cnco3)c2)C=C2c3cccc(C4CC4)c3CCN12 [Example 123a, 9-cyclopropyl-2-(4-(oxazol-5-yl)-1H-imidazol-1-yl)-7,8-dihydro-[1,4]diazepino[7,1-a]isoquinolin-5(4H)-one]
IC50 (human mGluR5a receptors): 12 nM | IC50 (human mGluR1): > 2000 nM

SMILES: O=C1CN=C(n2cnc(-c3ccno3)c2)C=C2c3cccc(C4CC4)c3CCN12 [Example 123b, 9-cyclopropyl-2-(4-(isoxazol-5-yl)-1H-imidazol-1-yl)-7,8-dihydro-[1,4]diazepino[7,1-a]isoquinolin-5(4H)-one]
IC50 (human mGluR5a receptors): 1 nM | IC50 (human mGluR1): 2340 nM

SMILES: O=C1CN=C(n2cnc(C3CC3)n2)C=C2c3cccc(C4CC4)c3CCN12 [Example 123c, 9-cyclopropyl-2-(3-cyclopropyl-1H-1,2,4-triazol-1-yl)-7,8-dihydro-[1,4]diazepino[7,1-a]isoquinolin-5(4H)-one]
IC50 (human mGluR5a receptors): 8 nM | IC50 (human mGluR1): 226 nM

SMILES: O=C1CN=C(n2cnc(-c3ccncc3)c2)C=C2c3cccc(C4CC4)c3CCN12 [Example 123f, 9-cyclopropyl-2-(4-(pyridin-4-yl)-1H-imidazol-1-yl)-7,8-dihydro-[1,4]diazepino[7,1-a]isoquinolin-5(4H)-one]
IC50 (human mGluR5a receptors): 108 nM | IC50 (human mGluR1): > 2000 nM

SMILES: COCc1cn(C2=NCC(=O)N3CCc4c(cccc4C(C)(C)C)C3=C2)cn1 [Example 125, 9-(tert-butyl)-2-(4-(methoxymethyl)-1H-imidazol-1-yl)-7,8-dihydro-[1,4]diazepino[7,1-a]isoquinolin-5(4H)-one]
IC50 (human mGluR5a receptors): 180 nM | IC50 (human mGluR1): > 2000 nM

SMILES: O=C1CN=C(n2cnc(CCO)c2)C=C2c3cccc(C4CC4)c3CCN12 [Example 128, 9-cyclopropyl-2-(4-(2-hydroxyethyl)-1H-imidazol-1-yl)-7,8-dihydro-[1,4]diazepino[7,1-a]isoquinolin-5(4H)-one]
IC50 (human mGluR5a receptors): 1 nM | IC50 (human mGluR1): 41 nM

SMILES: CC(O)c1cn(C2=NCC(=O)N3CCc4c(cccc4C4CC4)C3=C2)cn1 (centres unmarked) [Example 129, 9-cyclopropyl-2-(4-(1-hydroxyethyl)-1H-imidazol-1-yl)-7,8-dihydro-[1,4]diazepino[7,1-a]isoquinolin-5(4H)-one]
IC50 (human mGluR5a receptors): 2 nM | IC50 (human mGluR1): 1500 nM

SMILES: COC(=O)c1cccc2c1CCN1C(=O)CN=C(n3cnc(C4CC4)c3)C=C21 [Example 132, methyl 2-(4-cyclopropyl-1H-imidazol-1-yl)-5-oxo-4,5,7,8-tetrahydro-[1,4]diazepino[7,1-a]isoquinoline-9-carboxylate]
IC50 (human mGluR5a receptors): 61 nM | IC50 (human mGluR1): 2070 nM

SMILES: O=C1CN=C(n2cnc(C3CC3)n2)C=C2c3cccc(-c4ccc(F)cn4)c3CCN12 [Example 133, 2-(3-cyclopropyl-1H-1,2,4-triazol-1-yl)-9-(5-fluoropyridin-2-yl)-7,8-dihydro-[1,4]diazepino[7,1-a]isoquinolin-5(4H)-one]
IC50 (human mGluR5a receptors): 215 nM | IC50 (human mGluR1): > 10000 nM

SMILES: O=C1CN=C(n2cnc(C3CC3)n2)C=C2c3cccc(-c4cccc(F)n4)c3CCN12 [Example 134, 2-(3-cyclopropyl-1H-1,2,4-triazol-1-yl)-9-(6-fluoropyridin-2-yl)-7,8-dihydro-[1,4]diazepino[7,1-a]isoquinolin-5(4H)-one]
IC50 (human mGluR5a receptors): 198 nM | IC50 (human mGluR1): > 10000 nM

SMILES: O=C1CN=C(n2cnc(C3CC3)n2)C=C2c3cccc(-c4cc(F)ccn4)c3CCN12 [Example 135, 2-(3-cyclopropyl-1H-1,2,4-triazol-1-yl)-9-(4-fluoropyridin-2-yl)-7,8-dihydro-[1,4]diazepino[7,1-a]isoquinolin-5(4H)-one]
IC50 (human mGluR5a receptors): 829 nM | IC50 (human mGluR1): > 10000 nM

SMILES: O=C1CN=C(n2cnc(C3CC3)n2)C=C2c3cccc(-c4cnc(F)cn4)c3CCN12 [Example 136, 2-(3-cyclopropyl-1H-1,2,4-triazol-1-yl)-9-(5-fluoropyrazin-2-yl)-7,8-dihydro-[1,4]diazepino[7,1-a]isoquinolin-5(4H)-one]
IC50 (human mGluR5a receptors): 19 nM | IC50 (human mGluR1): > 2000 nM

SMILES: Cc1ncn(C2=NCC(=O)N3CCc4c(cccc4-c4cnc(F)cn4)C3=C2)n1 [Example 137, 9-(5-fluoropyrazin-2-yl)-2-(3-methyl-1H-1,2,4-triazol-1-yl)-7,8-dihydro-[1,4]diazepino[7,1-a]isoquinolin-5(4H)-one]
IC50 (human mGluR5a receptors): 48 nM | IC50 (human mGluR1): > 10000 nM

SMILES: O=C1CN=C(n2cnc(C3CC3)c2)C=C2c3cccc(-c4cnc(F)cn4)c3CCN12 [Example 139, 2-(4-cyclopropyl-1H-imidazol-1-yl)-9-(5-fluoropyrazin-2-yl)-7,8-dihydro-[1,4]diazepino[7,1-a]isoquinolin-5(4H)-one]
IC50 (human mGluR5a receptors): 17 nM | IC50 (human mGluR1): 1100 nM

SMILES: COCc1cn(C2=NCC(=O)N3CCc4c(OC(C)C)cccc4C3=C2)cn1 [Example 142, 9-isopropoxy-2-(4-(methoxymethyl)-1H-imidazol-1-yl)-7,8-dihydro-[1,4]diazepino[7,1-a]isoquinolin-5(4H)-one]
IC50 (human mGluR5a receptors): 273 nM | IC50 (human mGluR1): > 2000 nM

SMILES: COCc1cn(C2=NCC(=O)N3CCc4c(C5CC5)cccc4C3C2)cn1 (centres unmarked) [Example 143, 9-cyclopropyl-2-(4-(methoxymethyl)-1H-imidazol-1-yl)-1,7,8,12b-tetrahydro-[1,4]diazepino[7,1-a]isoquinolin-5(4H)-one]
IC50 (human mGluR5a receptors): 282 nM | IC50 (human mGluR1): > 10000 nM

More lines, now with the values ahead:

IC50 (human mGluR5a receptors): 7 nM | IC50 (human mGluR1): 890 nM
SMILES: COCc1cn(C2=NCC(=O)N3CCc4c(C5=CCCC5)cccc4C3=C2)cn1 [Example 120, 9-(cyclopent-1-en-1-yl)-2-(4-(methoxymethyl)-1H-imidazol-1-yl)-7,8-dihydro-[1,4]diazepino[7,1-a]isoquinolin-5(4H)-one]

IC50 (human mGluR5a receptors): 3 nM | IC50 (human mGluR1): 7000 nM
SMILES: CO[C@H](C)c1cn(C2=NCC(=O)N3CCc4c(cccc4C4CC4)C3=C2)cn1 [Example 123, (R)-9-cyclopropyl-2-(4-(1-methoxyethyl)-1H-imidazol-1-yl)-7,8-dihydro-[1,4]diazepino[7,1-a]isoquinolin-5(4H)-one]

IC50 (human mGluR5a receptors): 11 nM | IC50 (human mGluR1): 511 nM
SMILES: COc1cn(C2=NCC(=O)N3CCc4c(cccc4C4CC4)C3=C2)cn1 [Example 123d, 9-cyclopropyl-2-(4-methoxy-1H-imidazol-1-yl)-7,8-dihydro-[1,4]diazepino[7,1-a]isoquinolin-5(4H)-one]

IC50 (human mGluR5a receptors): 56 nM | IC50 (human mGluR1): 1640 nM
SMILES: O=C1CN=C(n2cnc(C(F)(F)F)c2)C=C2c3cccc(C4CC4)c3CCN12 [Example 123e, 9-cyclopropyl-2-(4-(trifluoromethyl)-1H-imidazol-1-yl)-7,8-dihydro-[1,4]diazepino[7,1-a]isoquinolin-5(4H)-one]

IC50 (human mGluR5a receptors): 5 nM | IC50 (human mGluR1): 3300 nM
SMILES: CCC(=O)c1cccc2c1CCN1C(=O)CN=C(n3cnc(C4CCC4)c3)C=C21 [Example 124, 2-(4-cyclobutyl-1H-imidazol-1-yl)-9-propionyl-7,8-dihydro-[1,4]diazepino[7,1-a]isoquinolin-5(4H)-one]

IC50 (human mGluR5a receptors): 7 nM | IC50 (human mGluR1): 1200 nM
SMILES: O=C1CN=C(n2cnc(C3(O)CC3)c2)C=C2c3cccc(C4CC4)c3CCN12 [Example 127, 9-cyclopropyl-2-(4-(1-hydroxycyclopropyl)-1H-imidazol-1-yl)-7,8-dihydro-[1,4]diazepino[7,1-a]isoquinolin-5(4H)-one]

IC50 (human mGluR5a receptors): 27 nM | IC50 (human mGluR1): 3310 nM
SMILES: O=C1CN=C(n2cnc(C(O)C3CC3)c2)C=C2c3cccc(C4CC4)c3CCN12 (centres unmarked) [Example 130, 9-cyclopropyl-2-(4-(cyclopropyl(hydroxy)methyl)-1H-imidazol-1-yl)-7,8-dihydro-[1,4]diazepino[7,1-a]isoquinolin-5(4H)-one]

IC50 (human mGluR5a receptors): 46 nM | IC50 (human mGluR1): > 2000 nM
SMILES: O=C1CN=C(n2cnc(COC(F)(F)F)c2)C=C2c3cccc(C4CC4)c3CCN12 [Example 131, 9-cyclopropyl-2-(4-((trifluoromethoxy)methyl)-1H-imidazol-1-yl)-7,8-dihydro-[1,4]diazepino[7,1-a]isoquinolin-5(4H)-one]

IC50 (human mGluR5a receptors): 79 nM | IC50 (human mGluR1): 1480 nM
SMILES: O=C1CN=C(n2cnc(C3CC3)c2)C=C2c3cccc(-n4nccn4)c3CCN12 [Example 138, 2-(4-cyclopropyl-1H-imidazol-1-yl)-9-(2H-1,2,3-triazol-2-yl)-7,8-dihydro-[1,4]diazepino[7,1-a]isoquinolin-5(4H)-one]

IC50 (human mGluR5a receptors): 93 nM | IC50 (human mGluR1): > 10000 nM
SMILES: O=C1CN=C(n2cnc(C3CC3)c2)C=C2c3ccc(F)c(-c4cnc(F)nc4)c3CCN12 [Example 140]

IC50 (human mGluR5a receptors): 26 nM | IC50 (human mGluR1): 402 nM
SMILES: O=C1CN=C(n2cnc(C3CC3)c2)C=C2c3cccc(-c4cncc(F)n4)c3CCN12 [Example 141, 2-(4-cyclopropyl-1H-imidazol-1-yl)-9-(6-fluoropyrazin-2-yl)-7,8-dihydro-[1,4]diazepino[7,1-a]isoquinolin-5(4H)-one]
